pIC50: −log10 of the molar value. Calls of active or inactive are those of the source. The rule behind the calls is not given here.
What was measured:
MCF7 = assay: Cytotoxicity against human MCF7 cells assessed as reduction in cell viability after 72 hrs by MTT assay; type: functional, cell-based; settings: for pIC50: MCF7, 72 h
MDA-MB-231 = assay: Cytotoxicity against human MDA-MB-231 cells assessed as reduction in cell viability after 72 hrs by MTT assay; type: functional, cell-based; settings: for pIC50: MDA-MB-231, 72 h

SMILES | pIC50 (MCF7) | pIC50 (MDA-MB-231) | Activity (MCF7) | Activity (MDA-MB-231)
COc1ccc(C(=O)/C=C/c2ccc(O)c(OC)c2)c(OC)c1 | 5.51 | < 5.00 |  | 
O=C1CC(c2ccc(O)cc2)Oc2cc(O)cc(O)c21 (stereo not given) |  |  | inactive | inactive
O=C(/C=C/c1ccc(O)cc1)c1ccc(O)c(O)c1O | < 5.00 | < 5.00 |  | 
O=C(CCc1ccc(O)cc1)c1c(O)cc(O)cc1O [PHLORETIN] | < 5.00 | < 5.00 |  | 
COc1cc(/C=C/C(=O)c2ccc(OC)c(OC)c2OC)cc(OC)c1OC | < 5.00 | 5.13 |  | 
CC(=O)O[C@H]1C(=O)[C@@]2(C)[C@H]([C@H](OC(=O)c3ccccc3)[C@]3(O)C[C@H](OC(=O)[C@H](O)[C@@H](NC(=O)c4ccccc4)c4ccccc4)C(C)=C1C3(C)C)[C@]1(OC(C)=O)CO[C@@H]1C[C@@H]2O [PACLITAXEL] |  | 8.41 |  | 
COc1cc(C(=O)/C=C/c2ccc(Cl)c(Cl)c2)cc(OC)c1OC | 5.15 | < 5.00 |  | 
O=C(CCc1ccc(O)cc1)c1ccc(O)cc1O [DAVIDIGENIN] | < 5.00 | < 5.00 |  | 
O=C(/C=C/c1ccc(O)cc1)c1ccc(O)cc1 [4,4'-DIHYDROXYCHALCONE] | < 5.00 | < 5.00 |  | 
O=C(/C=C/c1ccc(O)cc1)c1c(O)cc(O)cc1O [4,2',4',6'-TETRAHYDROXYCHALCONE] | < 5.00 | < 5.00 |  | 
COc1ccc2c(c1)OC(c1ccccc1)CC2=O (stereo not given) |  |  | inactive | inactive
O=C(/C=C/c1ccc(O)cc1)c1cc(Cc2c(O)ccc(C(=O)/C=C/c3ccc(O)cc3)c2O)c(O)cc1O | < 5.00 | < 5.00 |  | 
COc1ccc(/C=C/C(=O)c2ccc(OC)cc2OC)cc1 [METOCHALCONE] | 5.82 | 5.10 |  | 
O=C(/C=C/c1ccccc1)c1ccc(O)cc1O [2',4'-DIHYDROXYCHALCONE] | < 5.00 | < 5.00 |  | 
O=C(/C=C/c1ccc(O)cc1)c1ccc(O)cc1O [ISOLIQUIRITIGENIN] | < 5.00 | < 5.00 |  | 
COc1ccc(C(=O)CCc2ccccc2)c(O)c1 | < 5.00 | < 5.00 |  | 
O=C(/C=C/c1ccc(O)cc1)c1cc(O)ccc1O | < 5.00 | < 5.00 |  | 
COc1ccc(/C=C/C(=O)c2cc(OC)c(OC)c(OC)c2)cc1 | 6.15 | 5.19 |  | 

— ChEMBL document CHEMBL3779875, “Cytotoxic Evaluation against Breast Cancer Cells of Isoliquiritigenin Analogues from Spatholobus suberectus and Their Synthetic Derivatives” (J Nat Prod, 2016)
